Laboratory results taken from PMC12615863, “Improving GRPR-targeting peptides for radiotheranostics application: insights from chelator modifications and α-methyl-L tryptophan substitution” (EJNMMI Radiopharmacy and Chemistry, 2025).
Like-named read-outs stand apart in the source and are kept apart here.

How the values were obtained:
[1] = In vivo stability: intact radiopeptide in peripheral mouse blood 5 min pi, radio-HPLC; conditions: for Percentage of intact peptide, Entresto: blood 5 min pi
Description: Two animals per peptide were injected intravenously with a bolus of test radioligand (50 MBq, 2 nmol of peptide in 100 μL PBS/EtOH v/v 9:1) – Control group. To inhibit NEP, additional groups of two mice per compound were orally treated with 12 mg Entresto® (Novartis, Basel, Switzerland) 30 min before receiving the intravenous injection—Entresto group. Five minutes post-injection (pi), the animals were euthanized, and the blood was collected and immediately mixed with EDTA (0.1 mM, 40 μL) in Eppendorf tubes on ice. The mixture was spun at 2000 g for 10 min at 4 °C in an Eppendorf Centrifuge 5430 R (Eppendorf AG, Hamburg, Germany), and the plasma was collected and diluted with an equal volume of MeCN (4 °C). After a second centrifugation at 15,000 g and 4 °C for 10 min, the supernatant was collected in an Eppendorf tube and concentrated to 50–100 μL at 50 °C using a mild stream of N2. PBS was added to the samples to reach a final volume of 200 μL, and the solutions were filtered through a syringe filter (0.22 μm, 13 mm, VWR International, Radnor, USA). The filtered solution was analyzed by reversed-phase radio-HPLC to determine the percentage of intact peptides. The peak corresponding to the intact peptide was identified by injection of an aliquot of the labeling solution.

[2] = test system: PC-3 xenografts; experiment: Biodistribution in mice bearing PC-3 xenografts; type: in vivo, Balb/c nu/nu mice; conditions: PC-3 xenografted mice, between 4 and 24 h pi
Description: (§1) Each mouse was xenografted with a subcutaneous injection of 8 × 10⁶ PC-3 cells in the right hind leg. After approximately 4 weeks, the animals were injected into the tail vein with 100 µL of radiopeptide (100 pmol—110–130 kBq, diluted in PBS/BSA). Four animals were used for each time point per peptide. […] At the determined time points, the mice were euthanized, organs were collected and weighed, and their activity content was measured in the gamma counter. Results were presented as the percentage of injected activity per gram (%IA/g) for the collected organs, and the percentage of injected activity (%IA) for the gastrointestinal tract (GI) and the carcass. […] Statistical analysis was performed with GraphPad Prism 10 using two way ANOVA with Tuckey’s or Šidák’a post hoc analysis.

[3] = Biodistribution in mice bearing PC-3 xenografts; type: in vivo, Balb/c nu/nu mice; conditions: mouse, total radioactivity, PC-3 xenografted Balb/c nu/nu mice, iv 100 pmol, mean ± SD; for tissue uptake at 2 h / tissue uptake at 4 h / tissue uptake at 24 h: Balb/c nu/nu, iv; for tissue uptake at 4 h / tissue uptake dose at 4 h: 4 h pi; for tissue uptake at 24 h / tissue uptake dose at 24 h: 24 h pi
Description: as §1

[4] = test system: PC-3 cells; experiment: In vitro GRPR specificity assay (uptake with or without NOTA-PEG2-RM26 block); type: cell-based, human
Description: After discarding the medium, the cells were washed with cold (4 °C) phosphate-buffered saline containing 1% w/v bovine serum albumin (PBS/BSA). The radiopeptides (Cf = 1 nM in 1 mL PBS/BSA) were added to all wells. A subset of wells was also treated with an excess of unlabeled GRPR-binding peptide NOTA-PEG2-RM26 (Bjäreback et al. [2025]) (Cf = 1 µM in 1 mL PBS/BSA) to block GRPR. After incubation for 1 h at 37 °C, the supernatant was removed, and the cells were washed and then collected by treating them with 1 M NaOH. The activity of the collected samples was measured with the gamma counter. This assay was performed in triplicate for each radiopeptide.

[5] = blood, 100 pmol, n = 4, read-out: Blood activity uptake
[6] = bone, 100 pmol, n = 4, read-out: Bone activity uptake
[7] = kidneys, 100 pmol, n = 4, read-out: Kidneys activity uptake
[8] = liver, 100 pmol, n = 4, read-out: Liver activity uptake
[9] = lungs, 100 pmol, n = 4, read-out: Lungs activity uptake
[10] = muscle, 100 pmol, n = 4, read-out: Muscle activity uptake
[11] = pancreas, 100 pmol, n = 4, read-out: Pancreas activity uptake
[12] = small intestine, 100 pmol, n = 4, read-out: Small Int. activity uptake
[13] = spleen, 100 pmol, n = 4, read-out: Spleen activity uptake
[14] = stomach, 100 pmol, n = 4, read-out: Stomach activity uptake
[15] = tumor, 100 pmol, n = 4, read-out: Tumor activity uptake
[16] = carcass, n = 4, read-out: Body activity uptake
[17] = gastrointestinal tract with content, n = 4, read-out: GI activity uptake

Percentage of intact peptide, Entresto ([1]; NMRI mice, 12 mg Entresto orally 30 min before injection, recorded value n1): 90% [90% - 90%]
Percentage of intact peptide, Entresto ([1]; NMRI mice, 12 mg Entresto orally 30 min before injection, recorded value n2): 90% [90% - 90%]
Percentage of intact peptide, Entresto ([1]; healthy NMRI mice, 12 mg Entresto orally 30 min before iv injection (NEP inhibition), radio-HPLC, mean of n = 2): 90% [90% - 90%]
Percentage of intact peptide, Control ([1]; healthy NMRI mice, iv 50 MBq, 2 nmol, peripheral blood 5 min pi, radio-HPLC, mean of n = 2): 91% [88% - 94%]
tumor retention of activity [2]: around 80%
tissue uptake at 2 h ([3]; blood, 100 pmol, 2 h pi, n = 4, read-out: Blood activity uptake): 0.22 ± 0.04 %ID/g
tissue uptake at 4 h [3, 5]: 0.09 ± 0.02 %ID/g
tissue uptake at 24 h [3, 5]: 0.02 ± 0.01 %ID/g
tissue uptake at 2 h ([3]; blood, 2 h pi blocked (co-injected 100-fold molar excess NOTA-PEG2-RM26), n = 3, read-out: Blood activity uptake): 0.13 ± 0.06 %ID/g
tissue uptake at 2 h ([3]; bone, 100 pmol, 2 h pi, n = 4, read-out: Bone activity uptake): 0.16 ± 0.03 %ID/g
tissue uptake at 4 h [3, 6]: 0.13 ± 0.04 %ID/g
tissue uptake at 24 h [3, 6]: 0.08 ± 0.03 %ID/g
tissue uptake at 2 h ([3]; bone, 2 h pi blocked (co-injected 100-fold molar excess NOTA-PEG2-RM26), n = 3, read-out: Bone activity uptake): 0.11 ± 0.03 %ID/g
tissue uptake at 2 h ([3]; kidneys, 100 pmol, 2 h pi, n = 4, read-out: Kidneys activity uptake): 7.4 ± 1 %ID/g
tissue uptake at 4 h [3, 7]: 5.9 ± 0.8 %ID/g
tissue uptake at 24 h [3, 7]: 4.3 ± 0.8 %ID/g
tissue uptake at 2 h ([3]; kidneys, 2 h pi blocked (co-injected 100-fold molar excess NOTA-PEG2-RM26), n = 3, read-out: Kidneys activity uptake): 5.4 ± 0.7 %ID/g
tissue uptake at 2 h ([3]; liver, 100 pmol, 2 h pi, n = 4, read-out: Liver activity uptake): < 0.5 %ID/g
tissue uptake at 4 h [3, 8]: 0.42 ± 0.03 %ID/g
tissue uptake at 24 h [3, 8]: 0.24 ± 0.02 %ID/g
tissue uptake at 2 h ([3]; liver, 2 h pi blocked (co-injected 100-fold molar excess NOTA-PEG2-RM26), n = 3, read-out: Liver activity uptake): 0.38 ± 0.05 %ID/g
tissue uptake at 2 h ([3]; lungs, 100 pmol, 2 h pi, n = 4, read-out: Lungs activity uptake): 0.6 ± 0.3 %ID/g
tissue uptake at 4 h [3, 9]: 0.24 ± 0.08 %ID/g
tissue uptake at 24 h [3, 9]: 0.09 ± 0.01 %ID/g
tissue uptake at 2 h ([3]; lungs, 2 h pi blocked (co-injected 100-fold molar excess NOTA-PEG2-RM26), n = 3, read-out: Lungs activity uptake): 0.27 ± 0.03 %ID/g
tissue uptake at 2 h ([3]; muscle, 100 pmol, 2 h pi, n = 4, read-out: Muscle activity uptake): 0.09 ± 0.02 %ID/g
tissue uptake at 4 h [3, 10]: 0.1 ± 0.1 %ID/g
tissue uptake at 24 h [3, 10]: 0.02 ± 0.01 %ID/g
tissue uptake at 2 h ([3]; muscle, 2 h pi blocked (co-injected 100-fold molar excess NOTA-PEG2-RM26), n = 3, read-out: Muscle activity uptake): 0.07 ± 0.05 %ID/g
tissue uptake at 2 h ([3]; pancreas, 100 pmol, 2 h pi, n = 4, read-out: Pancreas activity uptake): 11.9 ± 2.1 %ID/g
tissue uptake at 4 h [3, 11]: 4.7 ± 0.4 %ID/g
tissue uptake at 24 h [3, 11]: 0.5 ± 0.2 %ID/g
tissue uptake at 2 h ([3]; small intestine, 100 pmol, 2 h pi, n = 4, read-out: Small Int. activity uptake): 2.2 ± 0.6 %ID/g
tissue uptake at 4 h [3, 12]: 1 ± 0.3 %ID/g
tissue uptake at 24 h [3, 12]: 0.11 ± 0.03 %ID/g
tissue uptake at 2 h ([3]; small intestine, 2 h pi blocked (co-injected 100-fold molar excess NOTA-PEG2-RM26), n = 3, read-out: Small Int. activity uptake): 0.7 ± 0.3 %ID/g
tissue uptake at 2 h ([3]; spleen, 100 pmol, 2 h pi, n = 4, read-out: Spleen activity uptake): 0.4 ± 0.2 %ID/g
tissue uptake at 4 h [3, 13]: 0.25 ± 0.07 %ID/g
tissue uptake at 24 h [3, 13]: 0.16 ± 0.06 %ID/g
tissue uptake at 2 h ([3]; spleen, 2 h pi blocked (co-injected 100-fold molar excess NOTA-PEG2-RM26), n = 3, read-out: Spleen activity uptake): 0.13 ± 0.02 %ID/g
tissue uptake at 2 h ([3]; stomach, 100 pmol, 2 h pi, n = 4, read-out: Stomach activity uptake): 2.5 ± 0.2 %ID/g
tissue uptake at 4 h [3, 14]: 1.9 ± 0.3 %ID/g
tissue uptake at 24 h [3, 14]: 0.16 ± 0.05 %ID/g
tissue uptake at 2 h ([3]; stomach, 2 h pi blocked (co-injected 100-fold molar excess NOTA-PEG2-RM26), n = 3, read-out: Stomach activity uptake): 0.6 ± 0.1 %ID/g
tissue uptake at 2 h ([3]; tumor, 100 pmol, 2 h pi, n = 4, read-out: Tumor activity uptake): 23.8 ± 2.5 %ID/g
tissue uptake at 4 h [3, 15]: 18.8 ± 0.7 %ID/g
tissue uptake at 24 h [3, 15]: 15.3 ± 2.7 %ID/g
tissue uptake at 2 h ([3]; tumor, 2 h pi blocked (co-injected 100-fold molar excess NOTA-PEG2-RM26), n = 3, read-out: Tumor activity uptake): 3.4 ± 0.3 %ID/g
tissue uptake dose at 2 h ([3]; carcass, 2 h pi, n = 4, read-out: Body activity uptake): 2.7 ± 0.8 %ID
tissue uptake dose at 4 h [3, 16]: 2.2 ± 0.4 %ID
tissue uptake dose at 24 h [3, 16]: 1.1 ± 0.7 %ID
tissue uptake dose at 2 h ([3]; gastrointestinal tract with content, 2 h pi, n = 4, read-out: GI activity uptake): 2 ± 0.2 %ID
tissue uptake dose at 4 h [3, 17]: 0.4 ± 0.3 %ID
tissue uptake dose at 24 h [3, 17]: 0.16 ± 0.03 %ID
Compound: CC(C)C[C@H](NC(=O)C[C@H](O)[C@H](CC(C)C)NC(=O)[C@H](Cc1c[nH]cn1)NC(=O)CN(C)C(=O)[C@@H](NC(=O)[C@H](C)NC(=O)[C@](C)(Cc1c[nH]c2ccccc12)NC(=O)[C@H](CCC(N)=O)NC(=O)[C@@H](Cc1ccccc1)NC(=O)CN1CCC(NC(=O)COCCOCCNC(=O)CN2CCN(CC(=O)O)CCN(CC(=O)O)CCN(CC(=O)O)CC2)CC1)C(C)C)C(N)=O [[^177Lu]Lu-PKB3, metal not drawn]
in vitro binding specificity ([4]; 1 nM radiopeptide, 1 h at 37 °C, block with 1 µM NOTA-PEG2-RM26, n = 3): GRPR-mediated activity uptake
total cellular activity uptake (rank among the three radiopeptides) ([4]; 1 nM, 37 °C, n = 3): highest
